“Also recorded” adds a separate entry of the source. Where a name gives a salt, the structure may show the parent alone.
Columns and labels:
Thrombin = target: T1, Thrombin (Homo sapiens, UniProt P00734); assay: Jump dilution, determination of inhibition type; format: biochemical; details: inhibitor at 10 times IC50, 15 min, diluted 10-fold or 100-fold; Rev./Irrev.
T1 construct: purchased R&D
Description: The dissociation of the enzyme-inhibitor complex was monitored by substrate hydrolysis over time ([Joossens et al., 2006]).
Because ABPs are designed to be irreversible serine protease inhibitors, the IC50 is exclusively used as a first discriminatory evaluation. When an inhibitor is irreversible, its IC50 value not only depends on the substrate and enzyme concentration but also on the time of incubation with the enzyme before the reaction is started by adding the substrate. […] The progress curve in the presence of an irreversible inhibitor will show final velocities equal to zero (Figure 6C). In contrast, for a reversible inhibitor, progress curves have a non-zero final steady-state velocity (Figure 6A) ([McWhirter, 2021]). To corroborate the inhibitory mechanism of the compounds, jump-dilution assays were performed. These use an inhibitor concentration of 10-fold the IC50 for the incubation, and a posteriori, the reaction mixture is diluted 10-fold or 100-fold before adding the substrate. In the case of an irreversible inhibitor, enzymatic activity is not regained (Figure 6D), whereas, in the case of a reversible compound, a slow release of the inhibitor and a gradual increase of the enzymatic activity rate is observed (Figure 6B) ([Copeland, 2013]; [McWhirter, 2021]). The jump-dilution assays confirmed the behavior described by the progress curves.
2.2.2 Jump dilution results
Supplementary Table 2. Jump dilution of selected alkyne and desthiobiotin probes against a panel of trypsin-like serine proteases. […]
# R R DtBa 3 tryptase Thrombin uPA CatG
32b H Alk Irrev. Irrev. Rev. Irrev. Rev.
45b DtB Irrev. Irrev. Rev. N.D. N.D.
33b Alk Irrev. Irrev. Rev. Irrev. Rev.
46b Cl DtB Irrev. Irrev. Rev. N.D. N.D.
34b H Alk Rev. Rev. Rev. Irrev. Rev.
50b DtB Rev. Rev. Rev. Irrev. Rev.
35b Alk Rev. Rev. Rev. Irrev. Rev.
52b NHCOMe DtB Rev. Rev. Rev. Irrev. Rev.
36b Alk Rev. Rev. Rev. Irrev. Rev.
54b Cl DtB Rev. Rev. Rev. Irrev. Rev.
37b Alk Irrev. Irrev. N.D. Irrev. Irrev.
55b H DtB Irrev. Irrev. N.D. Irrev. Irrev.
38b Alk Irrev. Irrev. N.D. Irrev. Irrev.
56b NHCOMe DtB Irrev. Irrev. N.D. Irrev. Irrev.
39b Alk Irrev. Irrev. N.D. Irrev. Rev.
57b Cl DtB Irrev. Irrev. N.D. Irrev. Rev.
41b H Alk Irrev. Irrev. Irrev. N.D. N.D.
31b Pro-Lys H Alk Irrev. Irrev. Irrev. Irrev. N.D. a Alk: ABP precursor bearing an alkyne; DtB: desthiobiotin probe b Panel of serine proteases abbreviations: urokinase plasminogen activator (uPA), cathepsin G (catG) N.D.: IC50 is greater than 10µM, and jump dilution was not performed
2.2.3 Progress curves and Jump dilution experiments
Kinetic assays were performed in the following manner. The inhibitor was mixed with the substrate, and the buffer solution with the enzyme was added at the time zero. The progress curves show the release of para-nitroaniline (pNA) or 7-amino-4-methyl coumarin (AMC) as a function of time.
To monitor the dissociation of the inhibitor-enzyme, aliquots of the enzyme were incubated at 37 °C without and with the inhibitor at a concentration 10 times higher than its IC 50. The enzyme […]
min, the aliquots were diluted 10-fold or 100-fold into the substrate concentration and assay buffer used for the IC50 determination. The dissociation of the enzyme-inhibitor complex was monitored by substrate hydrolysis over time. Blue lines represent the control where no inhibitor was present. Pink lines represent the assay with inhibitor.

β-tryptase = β-tryptase (Homo sapiens, UniProt P20231); assay: Labeling and detection of recombinant proteases (SDS-PAGE blot, NeutrAvidin-HRP); format: binding; details: 1 µM ABP, 100 ng protease, 30 min 37°C, denaturing SDS-PAGE blot
β-tryptase, sequence (P20231 31-275): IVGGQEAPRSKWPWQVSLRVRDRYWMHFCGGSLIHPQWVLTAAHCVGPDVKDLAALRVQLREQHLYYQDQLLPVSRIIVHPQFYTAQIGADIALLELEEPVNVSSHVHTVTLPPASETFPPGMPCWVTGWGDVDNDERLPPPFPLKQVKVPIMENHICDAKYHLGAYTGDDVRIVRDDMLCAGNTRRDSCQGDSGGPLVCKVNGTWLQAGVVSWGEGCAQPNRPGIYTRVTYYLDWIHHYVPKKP
Description: (§1) Recombinant proteases (100 ng) were labeled with 1 µM ABP in reaction buffer in a final volume of 40 µL for 30 min at 37°C. After the addition of 4X Laemmli buffer (Bio-Rad, GmbH) supplemented with Bond-Breaker Tris (2-CarboxyEthyl)Phosphine (TCEP) Solution (Thermo Scientific, United States), the samples were heated at 95°C for 5 min and loaded into 4%–20% Mini-Protean TGX precast gels (Bio-Rad, GmbH). After electrophoresis, the proteins were blotted onto nitrocellulose membranes using the Trans-Blot Transfer Turbo System (Bio-Rad). Membranes were incubated with NeutrAvidin-HRP (1:50,000), and bands were visualized with ECL Select Western Blot Detection Reagent (GE Healthcare Life Sciences) by chemiluminescence (Chemidoc XRS; Bio-Rad). The molecular weight of each band was determined with the Image Lab Software v5 (Bio-Rad).
(§2) To further characterize the newly synthesized compounds and their potential to be used as ABPs, nine desthiobiotin probes were used for the labeling and detection of recombinant proteases. The arginine (45b–46b) and the proline-lysine (58b) desthiobiotin probes were used as reference compounds. Whereas the benzyl guanidine (50b, 52b, 54b) and phenyl guanidine probes (55b–57b) were used to determine whether the mechanism of inhibition (reversible or irreversible) is an obstacle to visualize the proteases. Samples of human recombinant proteases (trypsin-3, β-tryptase, and CatG) were incubated with the different probes before electrophoresis and detection with NeutrAvidin-HRP on a Western blot. Figure 7A illustrates the ability of the desthiobiotin probes to indicate the presence of the corresponding trypsin-like enzyme. […] This effect can be explained due to the strong interactions between the active site of the protease and the probes. The high affinity and the slow off-rates were described in Table 5 by the equilibrium constants KI*. Assuming that there is an excess of inhibitor over enzyme, the free inhibitor concentration must be very low, lower than the KI*, in order for the complex to dissociate. Therefore, the high affinity complex E*I survives during the whole process of labeling, gel electrophoresis, and visualization.

Trypsin-3 = target: T2, Trypsin-3 (Homo sapiens, UniProt P35030); assay: as above; format: binding; details: 1 µM ABP, 100 ng protease, 30 min 37°C, denaturing SDS-PAGE blot
T2 sequence (P35030 1-304): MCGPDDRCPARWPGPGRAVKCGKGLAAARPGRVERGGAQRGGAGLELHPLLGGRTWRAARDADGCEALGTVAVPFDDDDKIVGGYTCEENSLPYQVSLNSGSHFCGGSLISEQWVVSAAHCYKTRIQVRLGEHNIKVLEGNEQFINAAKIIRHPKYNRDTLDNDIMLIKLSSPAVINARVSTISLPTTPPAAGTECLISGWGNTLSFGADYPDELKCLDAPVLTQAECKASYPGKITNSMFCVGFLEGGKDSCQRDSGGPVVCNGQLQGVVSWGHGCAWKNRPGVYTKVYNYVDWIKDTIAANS
Description: as §1, §2

**Q.** How did the “Thrombin jump dilution result” value (Thrombin) turn out when `C#CCCCOC(=O)NC(CCCNC(=N)N)P(=O)(Oc1ccccc1)Oc1ccccc1` (centres unmarked) [32b] was run?
**A.** Its value is “Rev”.

**Q.** Which “labeling of recombinant β-tryptase” value (β-tryptase) does the source give for `C[C@@H]1NC(=O)N[C@@H]1CCCCCC(=O)NCCOCCOCCOCCn1cc(CCCOC(=O)NC(c2ccc(NC(=N)N)cc2)P(=O)(Oc2ccc(Cl)cc2)Oc2ccc(Cl)cc2)nn1` (some centres unmarked) [57b] here?
**A.** Its value is “slightly better resolution”.

**Q.** Which results are given for `C[C@@H]1NC(=O)N[C@@H]1CCCCCC(=O)NCCOCCOCCOCCn1cc(CCCOC(=O)NC(Cc2ccc(NC(=N)N)cc2)P(=O)(Oc2ccccc2)Oc2ccccc2)nn1` (stereo partly drawn) [50b, 3-(1-(18-((4R,5S)-5-methyl-2-oxoimidazolidin-4-yl)-13-oxo-3,6,9-trioxa-12-azaoctadecyl)-1H-1,2,3-triazol-4-yl)propyl (1-(diphenoxyphosphoryl)-2-(4-guanidinophenyl)ethyl)carbamate trifluoroacetate salt]?
**A.** Thrombin jump dilution result (Thrombin): Rev.; labeling of recombinant trypsin-3 (Trypsin-3): can label; labeling of recombinant β-tryptase (β-tryptase): can label

**Q.** `CC(=O)Nc1ccc(OP(=O)(Oc2ccc(NC(C)=O)cc2)C(Cc2ccc(NC(=N)N)cc2)NC(=O)OCCCc2cn(CCOCCOCCOCCNC(=O)CCCCC[C@H]3NC(=O)N[C@H]3C)nn2)cc1` (some centres unmarked) [52b] was tested. Which “Thrombin jump dilution result” value (Thrombin) did it give?
**A.** Its value is “Rev”.

**Q.** And the “labeling of recombinant trypsin-3” value (Trypsin-3)?
**A.** Its value is “can label”.

**Q.** And the “labeling of recombinant β-tryptase” value (β-tryptase)?
**A.** Its value is “can label”.

**Q.** For `C#CCCCOC(=O)NC(C1CCN(C(=N)N)CC1)P(=O)(Oc1ccccc1)Oc1ccccc1` (centres unmarked) [41b], which “Thrombin jump dilution result” value (Thrombin) is on record?
**A.** Its value is “Irrev”.

**Q.** For `C#CCCCOC(=O)NC(CCCNC(=N)N)P(=O)(Oc1ccc(Cl)cc1)Oc1ccc(Cl)cc1` (centres unmarked) [33b], which “Thrombin jump dilution result” value (Thrombin) is on record?
**A.** The value was “Rev”.

**Q.** How did the “Thrombin jump dilution result” value (Thrombin) turn out when `C[C@@H]1NC(=O)N[C@@H]1CCCCCC(=O)NCCOCCOCCOCCn1cc(CCCOC(=O)NC(CCCNC(=N)N)P(=O)(Oc2ccccc2)Oc2ccccc2)nn1` (some centres unmarked) [45b] was run?
**A.** The value was “Rev”.

**Q.** What about the “labeling of recombinant β-tryptase” value (β-tryptase) of the same compound?
**A.** Its value is “not good ABP candidates”.

**Q.** `C#CCCCOC(=O)NC(Cc1ccc(NC(=N)N)cc1)P(=O)(Oc1ccc(Cl)cc1)Oc1ccc(Cl)cc1` (centres unmarked) [36b] was tested. Which “Thrombin jump dilution result” value (Thrombin) did it give?
**A.** Its value is “Rev”.

**Q.** How did the “Thrombin jump dilution result” value (Thrombin) turn out when `C#CCCCOC(=O)NC(Cc1ccc(NC(=N)N)cc1)P(=O)(Oc1ccc(NC(C)=O)cc1)Oc1ccc(NC(C)=O)cc1` (centres unmarked) [35b] was run?
**A.** Its value is “Rev”.

**Q.** With `C#CCCCOC(=O)NC(Cc1ccc(NC(=N)N)cc1)P(=O)(Oc1ccccc1)Oc1ccccc1` (centres unmarked) [34b] as the compound, how does the “Thrombin jump dilution result” value (Thrombin) read?
**A.** Its value is “Rev”.

**Q.** Which results are given for `C[C@@H]1NC(=O)N[C@@H]1CCCCCC(=O)NCCOCCOCCOCCn1cc(CCCOC(=O)NC(Cc2ccc(NC(=N)N)cc2)P(=O)(Oc2ccc(Cl)cc2)Oc2ccc(Cl)cc2)nn1` (some centres unmarked) [54b]?
**A.** Thrombin jump dilution result (Thrombin): Rev.; labeling of recombinant trypsin-3 (Trypsin-3): can label; labeling of recombinant β-tryptase (β-tryptase): can label; also recorded: slightly better resolution

**Q.** Which “Thrombin jump dilution result” value (Thrombin) does the source give for `C[C@@H]1NC(=O)N[C@@H]1CCCCCC(=O)NCCOCCOCCOCCn1cc(CCCOC(=O)NC(CCCNC(=N)N)P(=O)(Oc2ccc(Cl)cc2)Oc2ccc(Cl)cc2)nn1` (some centres unmarked) [46b] here?
**A.** Its value is “Rev”.

**Q.** And the “labeling of recombinant β-tryptase” value (β-tryptase)?
**A.** Its value is “not good ABP candidates”.

Source: article PMC9849758, “Chemically diverse activity-based probes with unexpected inhibitory mechanisms targeting trypsin-like serine proteases” (Frontiers in Chemistry, 2023)
